Assay results: patent publication US9382197B2, “Substituted hydroxamic acids and uses thereof” (Millennium Pharmaceuticals, Inc., priority 2010, dated 2016)

Molecular target: T1, purified human HDAC6 (Homo sapiens, UniProt Q9UBN7)
T1 construct: purchased BPS Bioscience 5006
T1 sequence (Q9UBN7 1-1215): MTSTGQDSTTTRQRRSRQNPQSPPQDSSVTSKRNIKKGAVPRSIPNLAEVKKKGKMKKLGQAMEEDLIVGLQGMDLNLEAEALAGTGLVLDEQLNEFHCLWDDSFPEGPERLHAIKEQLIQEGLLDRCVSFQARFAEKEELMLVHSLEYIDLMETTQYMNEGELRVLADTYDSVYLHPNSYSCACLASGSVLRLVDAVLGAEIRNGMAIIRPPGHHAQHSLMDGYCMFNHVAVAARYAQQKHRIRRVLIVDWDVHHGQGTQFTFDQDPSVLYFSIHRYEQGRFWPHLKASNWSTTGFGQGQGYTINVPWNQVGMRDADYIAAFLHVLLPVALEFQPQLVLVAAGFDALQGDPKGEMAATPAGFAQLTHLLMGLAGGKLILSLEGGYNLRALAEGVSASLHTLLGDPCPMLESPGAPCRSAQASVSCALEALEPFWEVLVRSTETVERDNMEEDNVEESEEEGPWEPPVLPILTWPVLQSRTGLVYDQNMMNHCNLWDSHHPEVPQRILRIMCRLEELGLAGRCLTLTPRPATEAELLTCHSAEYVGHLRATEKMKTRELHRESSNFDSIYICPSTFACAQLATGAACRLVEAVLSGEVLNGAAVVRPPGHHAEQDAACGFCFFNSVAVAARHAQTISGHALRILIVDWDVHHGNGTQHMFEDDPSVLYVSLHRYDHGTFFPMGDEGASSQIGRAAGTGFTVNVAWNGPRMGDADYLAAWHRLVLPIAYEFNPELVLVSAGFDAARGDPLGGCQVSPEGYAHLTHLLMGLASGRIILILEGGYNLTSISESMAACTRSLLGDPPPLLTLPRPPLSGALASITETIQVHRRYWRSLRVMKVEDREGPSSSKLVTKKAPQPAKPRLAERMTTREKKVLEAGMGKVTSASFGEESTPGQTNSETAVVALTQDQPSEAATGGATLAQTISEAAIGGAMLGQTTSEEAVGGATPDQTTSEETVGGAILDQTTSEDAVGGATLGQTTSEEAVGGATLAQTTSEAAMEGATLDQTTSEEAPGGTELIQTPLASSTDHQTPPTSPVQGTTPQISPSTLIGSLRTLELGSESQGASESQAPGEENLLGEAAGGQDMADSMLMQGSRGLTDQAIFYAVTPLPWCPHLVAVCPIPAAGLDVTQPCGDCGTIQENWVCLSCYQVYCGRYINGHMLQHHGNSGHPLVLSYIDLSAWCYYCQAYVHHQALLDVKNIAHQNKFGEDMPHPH
Test: HDAC6 Enzyme Assay
Format: biochemical
Method in brief: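 Purified human HDAC6 incubated 1 h at 30 °C with Ac-Arg-Gly-Lys(Ac)-AMC and compound; trichostatin A stop, trypsin release of AMC, fluorescence Ex 340/Em 460 nm. IC50 from concentration–response relative to DMSO.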

[1] = bin: greater than 500 nM and less than 1 μM (lower bound in nM, upper bound in μM)
[2] = purified human HDAC6, substrate Ac-Arg-Gly-Lys(Ac)-AMC, 1 hour at 30° C., reported as bins

| SMILES | IC50 [2] [nM] | further results |
| --- | --- | --- |
| CC(NC(=O)C1(c2ccc(Cl)cc2)CC1)c1cccc(C(=O)NO)c1 (stereo not shown) [Compound I-183, 3-[1-({[1-(4-chlorophenyl)cyclopropyl]carbonyl}amino)ethyl]-N-hydroxybenzamide] |  | IC50 [1]: 500 to 1000 nM |
| C[C@@H](NC(=O)C12CC3CC(CC(C3)C1)C2)c1cccc(C(=O)NO)c1 [Compound I-312, N-((1R)-1-{3-[(hydroxyamino)carbonyl]phenyl}ethyl)adamantane-1-carboxamide] |  | IC50 (bin: greater than 1 μM): > 1000 nM |
| CC(NC(=O)CC(C)(C)C)c1ccc(C(=O)NO)cc1 (stereo not shown) [Compound I-144, 4-{1-[(3,3-dimethylbutanoyl)amino]ethyl}-N-hydroxybenzamide] |  | IC50 (bin: greater than 1 μM): > 1000 nM |
| CC(NC(=O)Nc1ccccc1Oc1ccccc1)c1ccc(C(=O)NO)cc1 (stereo not shown) [Compound I-31, N-hydroxy-4-[1-({[(2-phenoxyphenyl)amino]carbonyl}amino)ethyl]benzamide] | < 100 |  |
| CC(NC(=O)c1nc2ccccc2n1C)c1cccc(C(=O)NO)c1 (stereo not shown) [Compound I-100, N-(1-{3-[(hydroxyamino)carbonyl]phenyl}ethyl)-1-methyl-1H-benzimidazole-2-carboxamide] |  | IC50 (bin: greater than 1 μM): > 1000 nM |
| Cc1c(C(=O)NC(C)c2ccc(C(=O)NO)cc2)oc2ccccc12 (stereo not shown) [Compound I-7, N-(1-{4-[(hydroxyamino)carbonyl]phenyl}ethyl)-3-methyl-1-benzofuran-2-carboxamide] | < 100 |  |
| CC(C)(C)C(NC(=O)c1cc(F)cc(F)c1)c1ccc(C(=O)NO)cc1 (stereo not shown) [Compound I-251, 3,5-difluoro-N-(1-{4-[(hydroxyamino)carbonyl]phenyl}-2,2-dimethylpropyl)benzamide] |  | IC50 [1]: 500 to 1000 nM |
| C[C@@H](NC(=O)c1cc2oc(-c3ccccc3)cc2n1C)c1cccc(C(=O)NO)c1 [Compound I-16, N-((1R)-1-{3-[(hydroxyamino)carbonyl]phenyl}ethyl)-4-methyl-2-phenyl-4H-furo[3,2-b]pyrrole-5-carboxamide] | 100 to 500 |  |
| COc1ccc(C(=O)NC(c2ccc(C(=O)NO)cc2)C(C)C)cc1 (stereo not shown) [Compound I-346, N-(1-{4-[(hydroxyamino)carbonyl]phenyl}-2-methylpropyl)-4-methoxybenzamide] | < 100 |  |
| CC(C)C(NC(=O)c1ccc(-c2ccccc2)cc1)c1ccc(C(=O)NO)cc1 (stereo not shown) [Compound I-11, N-(1-{4-[(hydroxyamino)carbonyl]phenyl}-2-methylpropyl)biphenyl-4-carboxamide] | < 100 |  |
| CC(NC(=O)c1ccc2occc2c1)c1ccc(C(=O)NO)cc1 (stereo not shown) [Compound I-349, N-(1-{4-[(hydroxyamino)carbonyl]phenyl}ethyl)-1-benzofuran-5-carboxamide] | < 100 |  |
| CC(C)(C)C(NC(=O)c1cc2ccccc2[nH]1)c1ccc(C(=O)NO)cc1 (stereo not shown) [Compound I-127, N-(1-{4-[(hydroxyamino)carbonyl]phenyl}-2,2-dimethylpropyl)-1H-indole-2-carboxamide] | < 100 |  |
| CC(NC(=O)Nc1ccc(C(F)(F)F)cc1)c1ccc(C(=O)NO)cc1 (stereo not shown) [Compound I-399, N-hydroxy-4-{1-[({[4-(trifluoromethyl)phenyl]amino}carbonyl)amino]ethyl}benzamide] | < 100 |  |
| CC(NC(=O)Nc1cc(C(F)(F)F)ccc1F)c1ccc(C(=O)NO)cc1 (stereo not shown) [Compound I-334, 4-{1-[({[2-fluoro-5-(trifluoromethyl)phenyl]amino}carbonyl)amino]ethyl}-N-hydroxybenzamide] | < 100 |  |
| CC(NC(=O)C1CCCCCC1)c1ccc(C(=O)NO)cc1 (stereo not shown) [Compound I-213, N-(1-{4-[(hydroxyamino)carbonyl]phenyl}ethyl)cycloheptanecarboxamide] | < 100 |  |
| CC(C)[C@@H](NC(=O)C1(C)CCCCC1)c1ccc(C(=O)NO)cc1 [Compound I-126, N-hydroxy-4-((1R)-2-methyl-1-{[(1-methylcyclohexyl)carbonyl]amino}propyl)benzamide] | 100 to 500 |  |
| CC(NC(=O)C1(C)CCCCC1)c1ccc(C(=O)NO)cc1 (stereo not shown) [Compound I-132, N-hydroxy-4-(1-{[(1-methylcyclohexyl)carbonyl]amino}ethyl)benzamide] | < 100 |  |

| SMILES | IC50 [2] [nM] | further results |
| --- | --- | --- |
| Cc1c(C(=O)NC(c2cccc(C(=O)NO)c2)C(C)C)oc2ccccc12 (stereo not shown) [Compound I-93, N-(1-{3-[(hydroxyamino)carbonyl]phenyl}-2-methylpropyl)-3-methyl-1-benzofuran-2-carboxamide] |  | IC50 (bin: greater than 1 μM): > 1000 nM |
| Cc1nc(C(=O)NC(c2ccc(C(=O)NO)cc2)C(C)(C)C)cs1 (stereo not shown) [Compound I-42, N-(1-{4-[(hydroxyamino)carbonyl]phenyl}-2,2-dimethylpropyl)-2-methyl-1,3-thiazole-4-carboxamide] | 100 to 500 |  |
| CC(NS(=O)(=O)c1cc2ccccc2s1)c1ccc(C(=O)NO)cc1 (stereo not shown) [Compound I-369, 4-{1-[(1-benzothien-2-ylsulfonyl)amino]ethyl}-N-hydroxybenzamide] | 100 to 500 |  |
| Cn1cccc1C(=O)NC(c1ccc(C(=O)NO)cc1)C(C)(C)C (stereo not shown) [Compound I-133, N-(1-{4-[(hydroxyamino)carbonyl]phenyl}-2,2-dimethylpropyl)-1-methyl-1H-pyrrole-2-carboxamide] | 100 to 500 |  |
| CC(NC(=O)c1cc2ccccc2o1)c1cccc(C(=O)NO)c1 (stereo not shown) [Compound I-401, N-(1-{3-[(hydroxyamino)carbonyl]phenyl}ethyl)-1-benzofuran-2-carboxamide] | 100 to 500 |  |
| CC(NC(=O)CCc1ccccc1)c1ccc(C(=O)NO)cc1 (stereo not shown) [Compound I-45, N-hydroxy-4-{1-[(3-phenylpropanoyl)amino]ethyl}benzamide] | < 100 |  |
| C[C@@H](NC(=O)c1ccc(-c2ccccc2)cc1)c1ccc(C(=O)NO)cc1 [Compound I-92, N-((1R)-1-{4-[(hydroxyamino)carbonyl]phenyl}ethyl)biphenyl-4-carboxamide] | < 100 |  |
| CC(C)(C)C(NC(=O)c1c[nH]c2ccccc12)c1ccc(C(=O)NO)cc1 (stereo not shown) [Compound I-319, N-(1-{4-[(hydroxyamino)carbonyl]phenyl}-2,2-dimethylpropyl)-1H-indole-3-carboxamide] | < 100 |  |
| C[C@@H](NC(=O)c1cccn1C)c1ccc(C(=O)NO)cc1 [Compound I-102, N-((1R)-1-{4-[(hydroxyamino)carbonyl]phenyl}ethyl)-1-methyl-1H-pyrrole-2-carboxamide] | < 100 |  |
| Cc1cccc(CNC(=O)NC(C)c2ccc(C(=O)NO)cc2)c1 (stereo not shown) [Compound I-316, N-hydroxy-4-[1-({[(3-methylbenzyl)amino]carbonyl}amino)ethyl]benzamide] | 100 to 500 |  |
| C[C@@H](NC(=O)C(C)(C)C)c1cccc(C(=O)NO)c1 [Compound I-177, 3-{(1R)-1-[(2,2-dimethylpropanoyl)amino]ethyl}-N-hydroxybenzamide] |  | IC50 (bin: greater than 1 μM): > 1000 nM |
| CC(NC(=O)Cc1ccc2c(c1)OCO2)c1ccc(C(=O)NO)cc1 (stereo not shown) [Compound I-280, 4-{1-[(1,3-benzodioxol-5-ylacetyl)amino]ethyl}-N-hydroxybenzamide] |  | IC50 (bin: greater than 1 μM): > 1000 nM |
| CC(NC(=O)c1cc(C(C)(C)C)nn1C)c1cccc(C(=O)NO)c1 (stereo not shown) [Compound I-309, 3-tert-butyl-N-(1-{3-[(hydroxyamino)carbonyl]phenyl}ethyl)-1-methyl-1H-pyrazole-5-carboxamide] |  | IC50 [1]: 500 to 1000 nM |
| CCc1cc(C(=O)NC(c2ccc(C(=O)NO)cc2)C(C)(C)C)n(C)n1 (stereo not shown) [Compound I-318, 3-ethyl-N-(1-{4-[(hydroxyamino)carbonyl]phenyl}-2,2-dimethylpropyl)-1-methyl-1H-pyrazole-5-carboxamide] | 100 to 500 |  |
| Cc1ccc(NC(=O)NC(C)c2ccc(C(=O)NO)cc2)c(C)c1 (stereo not shown) [Compound I-383, 4-[1-({[(2,4-dimethylphenyl)amino]carbonyl}amino)ethyl]-N-hydroxybenzamide] | < 100 |  |
| COc1ccc(C(=O)NC(c2ccc(C(=O)NO)cc2)C(C)(C)C)cc1 (stereo not shown) [Compound I-352, N-(1-{4-[(hydroxyamino)carbonyl]phenyl}-2,2-dimethylpropyl)-4-methoxybenzamide] | 100 to 500 |  |
| Cc1cc(C(=O)NC(c2ccc(C(=O)NO)cc2)C(C)(C)C)nn1C (stereo not shown) [Compound I-260, N-(1-{4-[(hydroxyamino)carbonyl]phenyl}-2,2-dimethylpropyl)-1,5-dimethyl-1H-pyrazole-3-carboxamide] | 100 to 500 |  |
